# Paper PMC4326489, “Efficacy and pharmacokinetic evaluation of a novel anti-malarial compound (NP046) in a mouse model” (Malaria Journal, 2015)
# Legend:
# [1] = Kinetic solubility (HPLC-UV); format: physicochemical; conditions: aqueous buffer, kinetic from dmso stock, PBS pH 2.0
# Protocol: The concentration of the test compound (x) in PBS samples was calculated from the peak area (y) in its UV chromatogram by extrapolation from the three-point calibration line, using the equation y = ax + b; where a = slope and b = intercept.
# Summary of the assay method for the determination kinetic solubility:
# PBS was prepared and its pH adjusted to 2.0 and 7.4
# primary stock solutions of the test compounds and controls (reserpine and hydrocortisone) in DMSO at 10 mM were prepared
# Samples were briefly vortex mixed
# samples were incubated for 2 hours while mixing in an incubator with orbital shaker at 200 rpm
# samples were centrifuged at 3500 rpm for 15 minutes at 22 °C
# the supernatant of the standards were transferred from the clear 96-well plate into an opaque, round bottom 96-well analysis plate, while the aqueous samples were filtered using a vacuum manifold through a multi-screen filter plate (MSRLN 0450, 0.4 µM), into the same opaque, round bottom 96-well plate
# samples were analysed using HPLC-UV method by injecting the STDs in duplicate, and the samples in singlet.
# [2] = test system: Plasmodium berghei transfected with green fluorescence protein (strain ANKA); test: In vivo efficacy (four-day dosing) in P. berghei-infected mice, % parasitaemia by flow cytometry; parameters: species or system Plasmodium berghei in male C57BL/6 mice; conditions: 10 mg/kg oral, day five post-infection
# Protocol: Plasmodium berghei transfected with green fluorescence protein (strain ANKA), a chloroquine-sensitive strain, was stored in liquid nitrogen. Parasites were thawed and administered intraperitoneally (IP) to infect two donor mice a week before the experiment commenced. […] Finally, each of the test animals received 200 μl of the P. berghei-infected RBCs (1×10^7 per 200 μl PBS) IP to infect them with the parasite. There were three animals per dose group, and each of them received 200 μl of NP046 in water orally and intravenously (volume adjusted relative to the weight of mouse) at their respective dose concentration as shown below:
# The test compound was administered to the animals once a day for four days. […] Blood samples were collected via tail bleeding in tubes containing PBS on day 5, and % parasitaemia was determined with FACSCalibur™ using the software CellQuestPro [5].
# Finally, the percentage parasite growth inhibition was calculated using the following equation [6]: [drawing 1]
structure (smiles),measurement,setting,value
"COC(=O)[C@H]1[C@H]2C[C@@H]3c4[nH]c5cc(OC)ccc5c4CCN3C[C@H]2C[C@@H](OC(=O)c2cc(OC)c(OC)c(OC)c2)[C@@H]1OC [Reserpine, reference compound]",solubility at 2 h,[1],193 µM
"CCN(CC)CCCC(C)Nc1ccnc2cc(Cl)ccc12 (stereo not drawn) [Positive control, chloroquine phosphate, reference compound]",% growth inhibition,[2]; relative to negative control (placebo),100%
same,% parasitaemia,"[2]; once a day for four days, mean ± S.E.M",0.01 ± 0.0%
